Source: EP0414688B1, “PROCESS FOR REGULATING THE ABSORPTION RATE OF DRUGS AND A PHARMACEUTICAL FORMULATION” (NEUVONEN, Pertti J., priority 1988, dated 1989)

Legend:
[1] = cross-over study of oral absorption with concomitant magnesium hydroxide; type: in vivo, test persons
Protocol: In persons having a poor absorption of fenamates the increase of peak concentrations of e.g. tolfenamic acid can be up to 10-fold through the action of magnesium hydroxide (fig. 4).
Since medicines are generally taken with water, the administration of pharmaceutical tablets in the above tests was immediately followed by 150 ml of water with magnesium hydroxide blended therein.

[2] = Pentikainen et al., European Journal of Clinical Pharmacology 1984; cited from earlier work

Row | Compound | rate of absorption ([1]; ibuprofen 400 mg (tabl. BURANA), concomitant ingestion of Mg-hydroxide) | increase of peak concentrations through the action of magnesium hydroxide ([1]; human, in vivo) | absorption from alimentary canal [2]
1 | CC(C)Cc1ccc(C(C)C(=O)O)cc1 (stereo not drawn) [ibuprofen] | accelerated significantly | – | –
2 | Cc1c(Cl)cccc1Nc1ccccc1C(=O)O [tolfenamic acid] | – | up to 10 fold | relatively slow
